The target of this test is T1, human F508del CFTR (Homo sapiens, UniProt P13569, DEL508-508).
T1 construct: expressed in transfected cells; host or cells: Fisher Rat Thyroid (FRT) cells
The experiment in a line: CFTR-YFP High Throughput Assay. In kind it is cell-based. The conditions noted are these: FRT cells expressing human F508del CFTR and YFP; for Emax: EMax normalized to the positive control, read-out: % Efficacy. The procedure: Assays for Detecting and Measuring the Effect of Compounds on F508del-CFTR Channels CFTR-YFP High Throughput Assay-CFTR Corrector Protocol:
This protocol is designed to selectively screen small molecule compounds for F508del CFTR corrector activities in the HTS YFP (yellow fluorescent protein) flux assay. In this protocol, the cells are incubated with testing compounds for 24 hours, washed with PBS, stimulated with forskolin and a standard potentiator, and fluorescence in each plate well is measured kinetically read on a 384-well HTS plate reader, such as the Hamamatsu FDSS-6000.
YFP fluorescence intensity values are acquired at high speed before and after iodide buffer is injected to the assay cells. Iodide enters the cells via active CFTR channels in the plasma membrane, and quenches the YFP fluorescence. The rate of fluorescence quenching is proportionate to the total CFTR activity in the cell membrane. F508del CFTR correctors increase the number of CFTR molecules in the testing cell plasma membrane, and thereby accelerate YFP quenching.
This method was initially developed for bench top plate readers (Galietta et al., 2001), and was adapted to the HTS format (Sui et al. Assay Drug Dev. Technol. 2010).
Fisher Rat Thyroid (FRT) cells stably expressing both human F508del CFTR and a halide-sensitive yellow fluorescent protein (YFP-H148Q/I152L 25,22) (Galietta et al. Am. J. Physiol Cell Physiol 281(5), C1734, 2001) were cultured on plastic surface in Coon's modified Ham's F12 medium supplemented with FBS 10%, L-glutamine 2 mM, penicillin 100 U/ml, and streptomycin 100 µg/ml. G418 (0.75-1.0 mg/ml) and zeocin (3.2 ug/ml) were used for selection of FRT cells expressing F508del CFTR and YFP. For primary screening, FRT cells were plated into 384-well black wall, transparent bottom microtiter plates (Costar; Corning Inc.) at a cell density of 20,000-40,000 per well. Test compound was applied to the cells at varying concentrations ranging from 2 nM-40 μM in either a 2-fold or 3-fold dilution series. Cells were incubated in a cell culture incubator at 37° C. with 5% CO2 for 24-26 h. Assay plates were washed with DPBS media (Thermo, cat# SH30028.02) to remove unbound cells and compound. Stimulation media (25 μL) containing 20 μM Forskolin & 30 μM P3 [6-(Ethyl-phenyl-sulfonyl)-4-oxo-1,4-dihydro-quinoline-3-carboxylic acid 2-methoxy-benzylamide] in Hams F-12 coon's modified media was added to the plate wells and incubated at room temperature for 60-120 min. […] (10 mM HEPES, 1 mM MgCl2, 3 mM KCl, 1 mM CaCl2, 150 mM NaI) was then added and fluorescence quench curves (Excitation 500 nm/Emission 540 nm; exposure 136 ms) were immediately recorded on an FDSS-6000 plate reader (Hamamatsu). Quench rates were derived from least squares fitting of the data as described by Sui et al (2010).
CFTR-YFP High Throughput Assay-CFTR Potentiator Protocol:
This protocol is designed to selectively screen small molecule compounds for F508del CFTR potentiator activities in the HTS YFP flux assay. Such compounds act acutely to stimulate CFTR already expressed on the membrane surface. In this protocol, the cells are incubated at 27° C. for 24 hours to homogeneously boost F508del CFTR expression in the cell membrane (low temperature correction), washed with PBS, treated with test compound, and CFTR activity is stimulated with forskolin for 1-2 hr. Measurement of ion flux is initiated by addition of iodide-containing buffer, and YFP quenching is kinetically recorded using a 384-well HTS plate reader, such as the Hamamatsu FDSS-6000.
YFP fluorescence intensity values are acquired at high speed over a 1 min time course before and after iodide buffer is injected to the assay cells. Iodide enters the cells via active CFTR channels in the plasma membrane, and quenches the YFP fluorescence. The rate of fluorescence quenching is proportionate to total CFTR activity in the cell membrane. […]

pEC50: −log10 of the molar value. Where only a bound is given, the exact number is not on record here.

As usually defined, the pEC50 is −log10 of the EC50, conventionally taken in molar units.

T1 sequence (P13569 with tags, fused parts or gaps DEL508-508): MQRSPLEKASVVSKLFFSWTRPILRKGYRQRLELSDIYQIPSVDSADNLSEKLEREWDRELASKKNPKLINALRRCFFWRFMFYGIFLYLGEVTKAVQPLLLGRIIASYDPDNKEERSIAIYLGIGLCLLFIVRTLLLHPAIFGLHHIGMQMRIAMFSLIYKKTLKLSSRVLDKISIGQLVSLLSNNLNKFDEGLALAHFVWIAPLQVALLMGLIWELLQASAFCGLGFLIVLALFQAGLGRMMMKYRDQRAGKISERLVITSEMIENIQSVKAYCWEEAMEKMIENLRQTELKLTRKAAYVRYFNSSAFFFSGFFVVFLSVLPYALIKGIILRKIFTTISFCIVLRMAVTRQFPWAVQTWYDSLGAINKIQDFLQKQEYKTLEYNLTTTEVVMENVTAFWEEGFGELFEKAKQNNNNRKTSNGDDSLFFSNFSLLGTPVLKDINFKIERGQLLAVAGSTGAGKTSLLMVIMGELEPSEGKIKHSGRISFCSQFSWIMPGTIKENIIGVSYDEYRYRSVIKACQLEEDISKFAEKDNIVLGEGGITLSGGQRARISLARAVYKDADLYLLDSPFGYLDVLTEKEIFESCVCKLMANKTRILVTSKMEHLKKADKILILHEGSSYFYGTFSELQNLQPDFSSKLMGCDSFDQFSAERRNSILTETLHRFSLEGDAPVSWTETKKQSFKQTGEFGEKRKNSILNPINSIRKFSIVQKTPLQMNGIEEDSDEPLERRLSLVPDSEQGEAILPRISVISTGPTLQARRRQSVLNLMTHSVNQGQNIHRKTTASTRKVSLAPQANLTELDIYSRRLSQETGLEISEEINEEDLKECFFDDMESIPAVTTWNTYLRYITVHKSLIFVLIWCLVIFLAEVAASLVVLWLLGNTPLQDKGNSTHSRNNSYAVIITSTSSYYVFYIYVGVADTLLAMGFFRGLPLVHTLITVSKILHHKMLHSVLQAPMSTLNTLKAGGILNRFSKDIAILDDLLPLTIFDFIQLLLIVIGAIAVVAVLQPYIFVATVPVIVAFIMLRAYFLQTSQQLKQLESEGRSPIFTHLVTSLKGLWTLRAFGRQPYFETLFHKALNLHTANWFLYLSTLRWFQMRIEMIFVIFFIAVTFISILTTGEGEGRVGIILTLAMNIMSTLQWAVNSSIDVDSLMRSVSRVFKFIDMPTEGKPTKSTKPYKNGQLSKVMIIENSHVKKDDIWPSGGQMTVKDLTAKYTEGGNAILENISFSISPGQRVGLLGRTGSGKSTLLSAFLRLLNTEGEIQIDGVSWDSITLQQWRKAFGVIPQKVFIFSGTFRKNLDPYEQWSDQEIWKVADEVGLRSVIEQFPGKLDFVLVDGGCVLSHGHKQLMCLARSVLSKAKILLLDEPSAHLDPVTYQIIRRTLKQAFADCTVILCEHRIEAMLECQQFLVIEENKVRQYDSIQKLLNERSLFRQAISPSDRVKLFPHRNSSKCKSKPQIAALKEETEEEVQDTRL

Turning to `CCN(C(=O)c1nn(-c2nc3ccccc3n2C)c(=O)c2c1c1ccccc1n2C)c1ccccc1` [Example 173, N-ethyl-5-methyl-3-(1-methyl-1H-benzo[d]imidazol-2-yl)-4-oxo-N-phenyl-4,5-dihydro-3H-pyridazino[4,5-b]indole-1-carboxamide], the Emax lay within 10 to 30%.
As to `CCc1ccc(N(CC)C(=O)Cn2nc(-c3ccc(S(C)(=O)=O)cc3)c3ccccc3c2=O)cc1` [Example 16, N-ethyl-N-(4-ethylphenyl)-2-(4-(4-(methylsulfanoyl)phenyl)-1-oxophthalazin-2(1H)-yl)acetamide], the Emax was 30 to 80% and the pEC50 was over 5.00.
Take `COc1ccc2c(c1)c1c(=O)n(CC(=O)N(C)c3ccc4nc(C)oc4c3)ncc1n2Cc1ccc(C#N)cc1` [Example 259, 2-(5-(4-cyanobenzyl)-8-methoxy-1-oxo-1,5-dihydro-2H-pyridazino[4,5-b]indol-2-yl)-N-methyl-N-(2-methylbenzo[d]oxazol-6-yl)acetamide]: the Emax was over 80% and the pEC50 was over 5.00.
Regarding `CCN(C(=O)Cn1nc(Cc2cccnc2)c2ccc(Cl)cc2c1=O)c1ccc2c(c1)OC(F)(F)O2` [Example 54, 2-(7-chloro-1-oxo-4-(pyridin-3-ylmethyl)phthalazin-2(1H)-yl)-N-(2,2-difluorobenzo[d][1,3]dioxol-5-yl)-N-ethylacetamide], the Emax was in the range of 30 to 80%.
Take `CCN(C(=O)Cn1nc(-c2cccc(C#N)c2)c2ccccc2c1=O)c1ccc2c(c1)OC(F)(F)O2` [Example 21, 2-(4-(3-cyanophenyl)-1-oxophthalazin-2(1H)-yl)-N-(2,2-difluorobenzo[d][1,3]dioxol-5-yl)-N-ethylacetamide]: the Emax was over 80% and the pEC50 is over 5.00.
Consider `CCN(C(=O)Cn1ncc2c(c1=O)c1ccccc1n2Cc1cccnc1)c1ccc2c(c1)OC(F)(F)O2` [Example 140, N-(2,2-difluorobenzo[d][1,3]dioxol-5-yl)-N-ethyl-2-(1-oxo-5-(pyridin-3-ylmethyl)-1H-pyridazino[4,5-b]indol-2(5H)-yl)acetamide], for which the Emax is 30 to 80%.
The same measure, in the same setting: with `CCN(C(=O)Cn1nc(Cc2cccnc2)c2cccc(OCCOC)c2c1=O)c1ccc2c(c1)OC(F)(F)O2` [Example 61, N-(2,2-difluorobenzo[d][1,3]dioxol-5-yl)-N-ethyl-2-(8-(2-methoxyethoxy)-1-oxo-4-(pyridin-3-ylmethyl)phthalazin-2(1H)-yl)acetamide] the figure was 30 to 80%.
Regarding `CCN(C(=O)Cn1nc(Cc2cccnc2)c2cccc(C)c2c1=O)c1ccc2c(c1)OC(F)(F)O2` [Example 47, N-(2,2-difluorobenzo[d][1,3]dioxol-5-yl)-N-ethyl-2-(8-methyl-1-oxo-4-(pyridin-3-ylmethyl)phthalazin-2(1H)-yl)acetamide], the Emax is 30 to 80%.
As to `CCOC(=O)c1ccc2c(=O)n(CC(=O)N(C)c3ccc4nc(C)oc4c3)nc(-c3cccc(F)c3)c2c1` [Example 68, ethyl 4-(3-fluorophenyl)-2-(2-(methyl(2-methyl-benzo[d]oxazol-6-yl)amino)-2-oxoethyl)-1-oxo-1,2-dihydrophthalazine-6-carboxylate], the Emax was in the range of 30 to 80% and the negative-log EC50 (pEC50) was over 5.00.
For `Cc1ccc(-n2nc(C(=O)Nc3cc(Cl)ccc3C(=O)O)c3c4ccccc4n(C)c3c2=O)cc1` [Example 184, 4-chloro-2-(5-methyl-4-oxo-3-(p-tolyl)-4,5-dihydro-3H-pyridazino[4,5-b]indole-1-carboxamido)benzoic acid], the Emax was 30 to 80% and the pEC50 is under 4.70.
For `CCN(C(=O)c1nn(-c2ccc(C)cc2)c(=O)c2[nH]c3ccccc3c12)c1cccc(Cl)c1` [Example 221, N-(3-chlorophenyl)-N-ethyl-4-oxo-3-(p-tolyl)-4,5-dihydro-3H-pyridazino[4,5-b]indole-1-carboxamide], the Emax lay within 30 to 80%.
As to `CCc1ccc(N(CC)C(=O)Cn2nc(Cc3cccnc3)c3ncccc3c2=O)cc1` [Example 43, N-ethyl-N-(4-ethylphenyl)-2-(5-oxo-8-(pyridin-3-ylmethyl)pyrido[2,3-d]pyridazin-6(5H)-yl)acetamide], the Emax fell in the range of 10 to 30% and the pEC50 was under 4.70.
On the same counts, the results for `CCOc1cccc2c(=O)n(CC(=O)N(CC)c3ccc4c(c3)OC(F)(F)O4)nc(Cc3cccnc3)c12` [Example 58, N-(2,2-difluorobenzo[d][1,3]dioxol-5-yl)-N-ethyl-2-(5-ethoxy-1-oxo-4-(pyridin-3-ylmethyl)phthalazin-2(1H)-yl)acetamide] are 30 to 80% and over 5.00.
As to `CCc1ccc(N(CC)C(=O)Cn2nc(C(=O)Nc3cc(Cl)ccc3C(=O)OC)c3ccccc3c2=O)cc1` [Example 130, methyl 4-chloro-2-(3-(2-(ethyl(4-ethylphenyl)amino)-2-oxoethyl)-4-oxo-3,4-dihydrophthalazine-1-carboxamido)benzoate], the Emax lay in the range of 30 to 80%.
For the molecule `CCN(C(=O)Cn1nc(Cc2cccnc2)c2c(C)cccc2c1=O)c1ccc2c(c1)OC(F)(F)O2` [Example 48, N-(2,2-difluorobenzo[d][1,3]dioxol-5-yl)-N-ethyl-2-(5-methyl-1-oxo-4-(pyridin-3-ylmethyl)phthalazin-2(1H)-yl)acetamide], the Emax is 30 to 80%.
Turning to `CCN(C(=O)Cn1nc(Cc2cccnc2)c2cc(Cl)ccc2c1=O)c1ccc2c(c1)OC(F)(F)O2` [Example 53, 2-(6-chloro-1-oxo-4-(pyridin-3-ylmethyl)phthalazin-2(1H)-yl)-N-(2,2-difluorobenzo[d][1,3]dioxol-5-yl)-N-ethylacetamide], the Emax was in the range of 30 to 80%.
For `CCN(C(=O)Cn1nc(C(=O)N(CC)c2ccccc2C#N)c2ccccc2c1=O)c1ccc2c(c1)OC(F)(F)O2` [Example 129, N-(2-cyanophenyl)-3-(2-((2,2-difluorobenzo[d][1,3]dioxol-5-yl)(ethyl)amino)-2-oxoethyl)-N-ethyl-4-oxo-3,4-dihydrophthalazine-1-carboxamide], the Emax is 30 to 80% and the pEC50 is 4.70 to 5.00.
Turning to `Cc1nc2ccc(N(C)C(=O)Cn3ncc4c(c3=O)c3ccccc3n4Cc3ccc(F)cc3)cc2o1` [Example 148, 2-(5-(4-fluorobenzyl)-1-oxo-1,5-dihydro-2H-pyridazino[4,5-b]indol-2-yl)-N-methyl-N-(2-methylbenzo[d]oxazol-6-yl)acetamide], the Emax lay within 30 to 80% and the pEC50 was over 5.00.
As for `CCc1ccc(N(CC)C(=O)Cn2nc(Cc3cccnc3)c3ccccc3c2=O)cc1` [Example 25, N-ethyl-N-(4-ethylphenyl)-2-(1-oxo-4-(pyridin-3-ylmethyl)phthalazin-2(1H)-yl)acetamide], the Emax lay in the range of 30 to 80% and the pEC50 is 4.70 to 5.00.
Turning to `COc1cc2c(=O)n(CC(=O)N(C)c3ccc4nc(C)oc4c3)nc(-c3cccc(F)c3)c2cc1Cl` [Example 93, 2-(6-chloro-4-(3-fluorophenyl)-7-methoxy-1-oxophthalazin-2(1H)-yl)-N-methyl-N-(2-methylbenzo[d]oxazol-6-yl)acetamide], the Emax is over 80%.
For the molecule `CCN(C(=O)c1nn(-c2ccc(C)cc2)c(=O)c2[nH]c3ccccc3c12)c1ccccc1` [Example 220, N-Ethyl-4-oxo-N-phenyl-3-p-tolyl-4,5-dihydro-3H-pyridazino[4,5-b]indole-1-carboxamide], the Emax fell in the range of 30 to 80%.

The record behind these values is US10370366B2 (Flatley Discovery Lab, LLC, priority 2013, dated 2019).
